pEC50, pIC50: −log10 of the molar value. One block for each molecule: values may come before it. The source made the active and inactive calls. The rule behind the calls is not given here.
What was measured:
Histone deacetylase 1 [1] = molecular target: T1, Histone deacetylase 1 (Homo sapiens, UniProt Q13547); assay: Inhibition of human recombinant HDAC1
HCT-116 [2] = assay: Cytotoxicity against human HCT116 cells by MTT assay; format: functional, cell-based
Histone deacetylase 1 [3] = molecular target: T1, Histone deacetylase 1; assay: Activity against HDAC1
[4] = Induction of histone H4 acetylation in human […]; format: functional, cell-based
HCT-116 [5] = assay: Antitumor activity in human HCT116 tumor bearing mouse at 20 mg/kg/day, ip after 2 weeks; format: functional; details: HCT-116, ip, 336 h, route intraperitoneal
[6] = molecular target: Histone deacetylase 2 (Homo sapiens) (UniProt Q92769); assay: Activity against HDAC2
Sequence of Histone deacetylase 2 (Homo sapiens) (Q92769 whole entry): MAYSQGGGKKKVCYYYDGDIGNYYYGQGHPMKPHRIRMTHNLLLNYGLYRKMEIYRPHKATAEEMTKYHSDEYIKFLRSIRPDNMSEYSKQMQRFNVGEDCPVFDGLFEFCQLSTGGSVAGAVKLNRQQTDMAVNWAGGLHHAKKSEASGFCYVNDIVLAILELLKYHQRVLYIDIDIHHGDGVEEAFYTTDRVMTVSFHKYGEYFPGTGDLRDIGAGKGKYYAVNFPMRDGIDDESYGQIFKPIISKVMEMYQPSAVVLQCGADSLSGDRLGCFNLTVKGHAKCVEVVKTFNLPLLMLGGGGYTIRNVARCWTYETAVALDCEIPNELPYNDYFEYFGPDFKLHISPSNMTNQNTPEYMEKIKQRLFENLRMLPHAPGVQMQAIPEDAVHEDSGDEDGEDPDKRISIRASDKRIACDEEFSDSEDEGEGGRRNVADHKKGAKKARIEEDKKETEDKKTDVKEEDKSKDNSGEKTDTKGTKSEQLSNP

[7] = molecular target: Histone deacetylase 3 (Homo sapiens) (UniProt O15379); assay: Activity against HDAC3
Sequence of Histone deacetylase 3 (Homo sapiens) (O15379 whole entry): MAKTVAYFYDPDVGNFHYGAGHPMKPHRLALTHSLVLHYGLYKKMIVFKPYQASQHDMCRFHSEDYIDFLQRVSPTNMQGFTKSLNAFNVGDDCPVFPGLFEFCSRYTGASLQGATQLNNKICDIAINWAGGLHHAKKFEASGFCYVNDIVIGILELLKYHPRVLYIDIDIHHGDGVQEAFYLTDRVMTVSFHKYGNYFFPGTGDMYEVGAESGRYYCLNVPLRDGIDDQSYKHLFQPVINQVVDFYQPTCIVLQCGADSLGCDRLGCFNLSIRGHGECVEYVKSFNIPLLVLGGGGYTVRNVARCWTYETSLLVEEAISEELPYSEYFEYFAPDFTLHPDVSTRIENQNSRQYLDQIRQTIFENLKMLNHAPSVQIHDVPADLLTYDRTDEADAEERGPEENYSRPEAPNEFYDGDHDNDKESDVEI

[8] = molecular target: T2, Protein deacetylase HDAC6 (Homo sapiens) (UniProt Q9UBN7); assay: Activity against HDAC6
T2 sequence (whole entry): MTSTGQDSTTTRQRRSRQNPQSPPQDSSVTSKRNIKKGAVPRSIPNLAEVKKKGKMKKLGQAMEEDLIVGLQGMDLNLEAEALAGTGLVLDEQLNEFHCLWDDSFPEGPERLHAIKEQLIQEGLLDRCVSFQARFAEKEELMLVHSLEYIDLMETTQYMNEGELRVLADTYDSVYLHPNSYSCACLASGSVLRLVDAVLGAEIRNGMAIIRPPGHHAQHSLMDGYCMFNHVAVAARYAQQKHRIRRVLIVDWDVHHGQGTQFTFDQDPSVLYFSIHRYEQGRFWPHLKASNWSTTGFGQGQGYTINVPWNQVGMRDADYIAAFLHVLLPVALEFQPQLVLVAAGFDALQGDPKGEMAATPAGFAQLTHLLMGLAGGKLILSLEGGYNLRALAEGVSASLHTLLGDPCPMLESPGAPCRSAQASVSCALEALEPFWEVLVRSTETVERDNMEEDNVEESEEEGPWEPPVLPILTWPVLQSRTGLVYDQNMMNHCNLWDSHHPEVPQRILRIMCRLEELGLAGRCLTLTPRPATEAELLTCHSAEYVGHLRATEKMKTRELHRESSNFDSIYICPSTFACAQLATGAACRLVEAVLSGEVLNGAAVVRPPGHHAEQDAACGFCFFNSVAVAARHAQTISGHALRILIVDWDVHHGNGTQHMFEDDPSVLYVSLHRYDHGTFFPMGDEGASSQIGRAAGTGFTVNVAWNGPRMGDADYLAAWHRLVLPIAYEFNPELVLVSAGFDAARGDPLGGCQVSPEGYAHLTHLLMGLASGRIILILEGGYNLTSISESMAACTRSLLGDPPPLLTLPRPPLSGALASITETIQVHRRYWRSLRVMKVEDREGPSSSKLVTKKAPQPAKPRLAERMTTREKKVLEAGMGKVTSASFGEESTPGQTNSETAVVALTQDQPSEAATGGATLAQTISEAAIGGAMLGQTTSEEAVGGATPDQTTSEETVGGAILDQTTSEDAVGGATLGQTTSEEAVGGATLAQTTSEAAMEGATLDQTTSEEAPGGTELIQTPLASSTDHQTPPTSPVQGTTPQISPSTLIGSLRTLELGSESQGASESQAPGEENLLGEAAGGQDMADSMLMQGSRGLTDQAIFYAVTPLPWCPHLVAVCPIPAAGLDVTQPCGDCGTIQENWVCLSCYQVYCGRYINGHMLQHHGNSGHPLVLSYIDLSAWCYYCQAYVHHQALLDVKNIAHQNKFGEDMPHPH

[9] = molecular target: Histone deacetylase 4 (Homo sapiens) (UniProt P56524); assay: Activity against HDAC4
Sequence of Histone deacetylase 4 (Homo sapiens) (P56524 whole entry): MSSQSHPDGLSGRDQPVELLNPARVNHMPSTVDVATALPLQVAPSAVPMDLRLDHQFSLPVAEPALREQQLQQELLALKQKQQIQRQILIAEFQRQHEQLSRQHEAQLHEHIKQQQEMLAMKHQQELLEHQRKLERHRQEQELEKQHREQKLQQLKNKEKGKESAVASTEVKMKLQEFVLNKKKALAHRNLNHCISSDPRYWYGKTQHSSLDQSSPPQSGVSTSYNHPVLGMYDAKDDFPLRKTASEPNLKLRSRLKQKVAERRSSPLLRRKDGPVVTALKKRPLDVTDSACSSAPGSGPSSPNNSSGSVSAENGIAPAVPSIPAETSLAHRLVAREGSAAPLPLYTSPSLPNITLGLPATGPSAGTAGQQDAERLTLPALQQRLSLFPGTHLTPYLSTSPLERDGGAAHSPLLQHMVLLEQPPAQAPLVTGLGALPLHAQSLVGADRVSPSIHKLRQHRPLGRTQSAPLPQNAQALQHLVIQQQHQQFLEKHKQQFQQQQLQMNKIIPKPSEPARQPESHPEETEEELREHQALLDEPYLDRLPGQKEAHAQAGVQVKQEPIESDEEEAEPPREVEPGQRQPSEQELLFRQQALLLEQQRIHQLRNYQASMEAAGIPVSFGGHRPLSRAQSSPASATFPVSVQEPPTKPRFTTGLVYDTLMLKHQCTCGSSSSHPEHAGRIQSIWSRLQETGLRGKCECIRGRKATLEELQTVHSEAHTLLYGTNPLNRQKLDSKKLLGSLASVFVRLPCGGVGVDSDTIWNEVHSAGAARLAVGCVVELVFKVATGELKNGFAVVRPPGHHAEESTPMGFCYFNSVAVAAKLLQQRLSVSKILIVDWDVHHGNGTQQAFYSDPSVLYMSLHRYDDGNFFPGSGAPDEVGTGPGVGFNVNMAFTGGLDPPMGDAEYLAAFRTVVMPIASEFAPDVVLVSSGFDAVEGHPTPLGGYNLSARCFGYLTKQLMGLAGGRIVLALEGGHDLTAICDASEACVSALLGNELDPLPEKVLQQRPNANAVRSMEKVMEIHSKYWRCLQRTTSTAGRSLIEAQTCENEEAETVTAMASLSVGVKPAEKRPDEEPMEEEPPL

HMEC = assay: Cytotoxicity against human HMEC cells by MTT assay; format: cell-based
[10] = molecular target: T3, Histone deacetylase 7 (Homo sapiens) (UniProt Q8WUI4); assay: Activity against HDAC7
T3 sequence (whole entry): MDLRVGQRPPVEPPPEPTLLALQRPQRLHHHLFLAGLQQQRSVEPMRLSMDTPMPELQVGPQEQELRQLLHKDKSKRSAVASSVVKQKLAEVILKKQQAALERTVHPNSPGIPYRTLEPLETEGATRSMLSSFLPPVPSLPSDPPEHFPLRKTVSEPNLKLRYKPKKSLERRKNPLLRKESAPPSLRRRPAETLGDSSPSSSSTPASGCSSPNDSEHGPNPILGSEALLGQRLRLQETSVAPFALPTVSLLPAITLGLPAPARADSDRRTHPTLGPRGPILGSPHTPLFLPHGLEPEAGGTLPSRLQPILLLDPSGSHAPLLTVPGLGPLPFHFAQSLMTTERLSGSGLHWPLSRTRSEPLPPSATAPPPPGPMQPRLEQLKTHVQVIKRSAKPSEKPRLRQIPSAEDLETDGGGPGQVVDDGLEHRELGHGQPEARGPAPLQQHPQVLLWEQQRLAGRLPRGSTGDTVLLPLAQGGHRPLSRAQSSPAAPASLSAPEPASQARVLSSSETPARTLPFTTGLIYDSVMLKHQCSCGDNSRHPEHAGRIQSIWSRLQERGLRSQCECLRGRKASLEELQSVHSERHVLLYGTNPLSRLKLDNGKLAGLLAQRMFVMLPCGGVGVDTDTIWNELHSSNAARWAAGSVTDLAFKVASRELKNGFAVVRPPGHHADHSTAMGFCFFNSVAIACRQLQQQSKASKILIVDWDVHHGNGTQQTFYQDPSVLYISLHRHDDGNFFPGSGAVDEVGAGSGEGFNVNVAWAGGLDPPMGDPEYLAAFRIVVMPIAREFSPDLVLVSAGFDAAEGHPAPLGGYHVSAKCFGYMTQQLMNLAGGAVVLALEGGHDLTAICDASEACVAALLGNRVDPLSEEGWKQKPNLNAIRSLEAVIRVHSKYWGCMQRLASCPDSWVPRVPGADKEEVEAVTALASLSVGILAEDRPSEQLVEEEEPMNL

[11] = molecular target: Histone deacetylase 5 (Homo sapiens) (UniProt Q9UQL6); assay: Activity against HDAC5
Sequence of Histone deacetylase 5 (Homo sapiens) (Q9UQL6 whole entry): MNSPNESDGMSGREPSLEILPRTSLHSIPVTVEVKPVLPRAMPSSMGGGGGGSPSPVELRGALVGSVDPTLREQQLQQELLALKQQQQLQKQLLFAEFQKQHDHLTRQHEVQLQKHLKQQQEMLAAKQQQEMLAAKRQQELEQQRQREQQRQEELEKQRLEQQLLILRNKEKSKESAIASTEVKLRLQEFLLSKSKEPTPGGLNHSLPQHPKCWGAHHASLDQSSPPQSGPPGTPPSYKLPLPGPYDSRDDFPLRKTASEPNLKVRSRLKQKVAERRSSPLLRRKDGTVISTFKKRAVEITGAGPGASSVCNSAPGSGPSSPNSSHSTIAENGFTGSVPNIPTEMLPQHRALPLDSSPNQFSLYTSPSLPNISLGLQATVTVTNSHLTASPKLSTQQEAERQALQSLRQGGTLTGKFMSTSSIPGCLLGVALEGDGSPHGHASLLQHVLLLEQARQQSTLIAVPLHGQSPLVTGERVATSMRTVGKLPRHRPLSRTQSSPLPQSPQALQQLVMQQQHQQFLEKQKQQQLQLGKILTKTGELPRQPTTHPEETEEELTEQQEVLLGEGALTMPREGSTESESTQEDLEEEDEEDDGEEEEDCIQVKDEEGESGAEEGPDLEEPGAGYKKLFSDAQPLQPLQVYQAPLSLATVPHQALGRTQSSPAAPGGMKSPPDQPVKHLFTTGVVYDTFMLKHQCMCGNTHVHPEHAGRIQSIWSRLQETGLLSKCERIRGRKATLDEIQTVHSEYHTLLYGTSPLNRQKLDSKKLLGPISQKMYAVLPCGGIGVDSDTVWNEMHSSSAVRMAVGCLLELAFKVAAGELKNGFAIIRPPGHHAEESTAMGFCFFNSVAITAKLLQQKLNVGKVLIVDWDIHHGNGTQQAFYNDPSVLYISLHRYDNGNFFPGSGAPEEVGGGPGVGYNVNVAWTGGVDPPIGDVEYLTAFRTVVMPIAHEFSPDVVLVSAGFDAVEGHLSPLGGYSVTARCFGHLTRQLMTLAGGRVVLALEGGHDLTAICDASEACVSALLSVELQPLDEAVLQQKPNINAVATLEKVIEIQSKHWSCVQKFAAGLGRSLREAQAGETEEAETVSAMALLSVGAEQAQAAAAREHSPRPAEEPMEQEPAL

HCT-116 [12] = assay: Antitumor activity in human HCT116 tumor bearing mouse at 40 mg/kg/day, ip after 2 weeks; format: functional; details: HCT-116, ip, 336 h, route intraperitoneal

T1 sequence (Q13547 whole entry): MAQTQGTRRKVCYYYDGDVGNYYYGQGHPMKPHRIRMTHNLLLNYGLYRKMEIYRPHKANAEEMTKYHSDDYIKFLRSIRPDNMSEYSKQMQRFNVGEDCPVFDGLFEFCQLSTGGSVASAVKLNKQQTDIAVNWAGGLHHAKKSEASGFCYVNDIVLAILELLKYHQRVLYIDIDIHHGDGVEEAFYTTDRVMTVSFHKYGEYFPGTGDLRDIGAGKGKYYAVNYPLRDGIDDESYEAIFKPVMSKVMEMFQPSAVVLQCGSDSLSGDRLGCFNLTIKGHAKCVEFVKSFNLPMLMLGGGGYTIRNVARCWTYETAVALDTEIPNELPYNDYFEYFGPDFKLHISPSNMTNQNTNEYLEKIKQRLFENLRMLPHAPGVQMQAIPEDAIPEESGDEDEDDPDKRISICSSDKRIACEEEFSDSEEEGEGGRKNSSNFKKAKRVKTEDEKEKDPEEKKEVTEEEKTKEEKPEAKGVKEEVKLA

SMILES: CCCCn1cnc2c(NCc3ccc(C(=O)Nc4ccccc4N)cc3)nc(N)nc21
pIC50 (Histone deacetylase 1 [1]): 6.52
pIC50 (HCT-116 [2]): 5.70

SMILES: Nc1nc(NCc2ccc(C(=O)Nc3ccccc3N)cc2)c2nc[nH]c2n1
pIC50 (Histone deacetylase 1 [1]): 6.70
pIC50 (HCT-116 [2]): 5.00

SMILES: Nc1ccccc1NC(=O)c1ccc(CNc2ncccn2)cc1
pIC50 (Histone deacetylase 1 [1]): 6.15
pIC50 (HCT-116 [2]): 5.70

SMILES: Nc1ccccc1NC(=O)c1ccc(CSc2ccccn2)cc1
pIC50 (Histone deacetylase 1 [1]): 6.52
pIC50 (HCT-116 [2]): 6.00

SMILES: COc1cc(NCc2ccc(C(=O)Nc3ccccc3N)cc2)ncn1
pIC50 (Histone deacetylase 1 [1]): 6.70
pIC50 (HCT-116 [2]): 6.00

SMILES: Cc1ccc(C#N)c(OCc2ccc(C(=O)Nc3ccccc3N)cc2)n1
pIC50 (Histone deacetylase 1 [1]): 6.52
pIC50 (HCT-116 [2]): 6.30

SMILES: Nc1nc(NCc2ccc(C(=O)Nc3ccccc3N)cc2)nc(NC2Cc3ccccc3C2)n1
pIC50 (Histone deacetylase 1 [1]): 6.70
Activity (Histone deacetylase 1 [3]): Active
pEC50 [4]: 6.00
Activity [6]: Active
Activity [7]: Active
Activity [8]: inactive
pIC50 (HCT-116 [2]): 6.22
Activity [9]: inactive
pIC50 (HMEC): 5.10
Activity [10]: inactive
Activity [11]: inactive

SMILES: Cc1cc(C)nc(NCc2ccc(C(=O)Nc3ccccc3N)cc2)n1
pIC50 (Histone deacetylase 1 [1]): 6.52
pIC50 (HCT-116 [2]): 6.00

SMILES: Nc1nc(NCc2ccc(C(=O)Nc3ccccc3N)cc2)nc(NC2CCCC2)n1
pIC50 (Histone deacetylase 1 [1]): 6.70
Activity (Histone deacetylase 1 [3]): Active
pEC50 [4]: 6.10
Activity [6]: Active
Activity [7]: Active
Activity [8]: inactive
pIC50 (HCT-116 [2]): 6.15
Activity [9]: inactive
pIC50 (HMEC): 4.96
Activity [10]: inactive
Activity [11]: inactive
inhibition in vivo at 40 mg/kg/day (HCT-116 [12]): 50%

SMILES: Nc1nc(NCc2ccc(C(=O)Nc3ccccc3N)cc2)nc(N2CCOCC2)n1
pIC50 (Histone deacetylase 1 [1]): 6.70
Activity (Histone deacetylase 1 [3]): Active
pEC50 [4]: 5.30
Activity [6]: Active
Activity [7]: Active
Activity [8]: inactive
pIC50 (HCT-116 [2]): 6.10
Activity [9]: inactive
pIC50 (HMEC): < 4.40
Activity [10]: inactive
Activity [11]: inactive
inhibition in vivo at 40 mg/kg/day (HCT-116 [12]): 50%

SMILES: Nc1nc(NCCc2ccccc2)nc(NCc2ccc(C(=O)Nc3ccccc3N)cc2)n1
pIC50 (Histone deacetylase 1 [1]): 7.00
pEC50 [4]: 6.00
pIC50 (HCT-116 [2]): 6.52
pIC50 (HMEC): 4.68

The next lines start with results.

pIC50 (Histone deacetylase 1 [1]): 7.15
Activity (Histone deacetylase 1 [3]): Active
pEC50 [4]: 6.00
Activity [6]: Active
Activity [7]: Active
Activity [8]: inactive
Activity [9]: inactive
Activity [10]: inactive
Activity [11]: inactive
SMILES: Nc1ccccc1NC(=O)c1ccc(CNc2nc(NCCN3CCOCC3)nc(NC3Cc4ccccc4C3)n2)cc1
inhibition in vivo at 20 mg/kg/day (HCT-116 [5]): 49%
pIC50 (HCT-116 [2]): 6.22
pIC50 (HMEC): 4.80

pIC50 (Histone deacetylase 1 [1]): 7.00
SMILES: Nc1ccccc1NC(=O)c1ccc(CNc2cccc(F)n2)cc1
pIC50 (HCT-116 [2]): 6.00

pIC50 (Histone deacetylase 1 [1]): 7.10
pEC50 [4]: 6.00
SMILES: Nc1ccccc1NC(=O)c1ccc(CNc2nc(NC3Cc4ccccc4C3)nc(N3CCOCC3)n2)cc1
pIC50 (HCT-116 [2]): 5.70
pIC50 (HMEC): < 4.30

pIC50 (Histone deacetylase 1 [1]): 7.00
SMILES: COc1ccc(-c2cc(Cl)nc(NCc3ccc(C(=O)Nc4ccccc4N)cc3)n2)cc1OC
pIC50 (HCT-116 [2]): 6.40

pIC50 (Histone deacetylase 1 [1]): 7.00
SMILES: COc1cccc(NCc2ccc(C(=O)Nc3ccccc3N)cc2)n1
pIC50 (HCT-116 [2]): 6.10

pIC50 (Histone deacetylase 1 [1]): 7.52
pEC50 [4]: 6.00
SMILES: Nc1ccccc1NC(=O)c1ccc(CNc2nc(NC3CC3)nc(NC3Cc4ccccc4C3)n2)cc1
pIC50 (HCT-116 [2]): 6.00
pIC50 (HMEC): 4.74

pIC50 (Histone deacetylase 1 [1]): 7.00
SMILES: COc1cc(OC)nc(NCc2ccc(C(=O)Nc3ccccc3N)cc2)n1
pIC50 (HCT-116 [2]): 6.22

pIC50 (Histone deacetylase 1 [1]): 7.30
SMILES: CCCCn1cnc2c(NCc3ccc(C(=O)Nc4ccccc4N)cc3)nc(Cl)nc21
pIC50 (HCT-116 [2]): 7.00

pIC50 (Histone deacetylase 1 [1]): 7.40
pEC50 [4]: 6.00
SMILES: Nc1nc(NCc2ccc(C(=O)Nc3ccccc3N)cc2)nc(N2Cc3ccccc3C2)n1
pIC50 (HCT-116 [2]): 6.30
pIC50 (HMEC): < 4.30

pIC50 (Histone deacetylase 1 [1]): 7.00
SMILES: COc1ccc(NCc2ccc(C(=O)Nc3ccccc3N)cc2)cn1
pIC50 (HCT-116 [2]): 6.15

pIC50 (Histone deacetylase 1 [1]): 7.00
pEC50 [4]: 6.00
SMILES: Nc1nc(NCc2ccc(C(=O)Nc3ccccc3N)cc2)nc(N2CCc3ccccc32)n1
pIC50 (HCT-116 [2]): 6.10
pIC50 (HMEC): 5.00

pIC50 (Histone deacetylase 1 [1]): 7.30
SMILES: COc1ccc(-c2ccnc(NCc3ccc(C(=O)Nc4ccccc4N)cc3)n2)cc1OC
pIC50 (HCT-116 [2]): 7.00

From ChEMBL document CHEMBL1143113, “Design and synthesis of 4-[(s-triazin-2-ylamino)methyl]-N-(2-aminophenyl)-benzamides and their analogues as a novel class of histone deacetylase inhibitors” (Bioorg Med Chem Lett, 2008)
